Measured values published in PMC5784158, “New 2-Aryl-9-methyl-β-carbolinium salts as Potential Acetylcholinesterase Inhibitor agents: Synthesis, Bioactivity and Structure–Activity Relationship” (Scientific Reports, 2018).

How the values were obtained:
[1] = target: AChE (Musca domestica, UniProt Q7YWJ9); test: biochemical; assay type: biochemical, fly; settings: for IC50: read-out: IC50 ± S.D AChE; for Inhibition rate (%): test concentration of the compound 10 μM
Protocol: AChE (E.C. 3.1.1.7) (BR, 200 u/mg) from fly’s head and BuChE (E.C. 3.1.1.8) (BR, 20 u/mg) from horse serum were purchased from Shanghai Yuanye biological technology Co. Ltd (Shanghai, China).
(§1) The inhibitory activities of the compounds against AChE were evaluated according to Ellman’s coupled enzyme assay[47] with the following modifications. 90 μL potassium phosphate buffer (PBS, 0.1 M, pH 7.4), 10 μL the solution of 2 units/mL AChE in 0.1 M PBS (pH 7.4) and 10 μL the solution of 200 μM test compounds in the mixed solution of methanol-PBS (pH 7.4) (1:9, V/V) were added to each well of a 96-well plate. The methanol-PBS solution was used as a blank control. After incubation at room temperature for 10 min, 60 μL the solution of 10 mM DTNB in PBS was added into each the well. The plate was placed on crushed ices and cooled for 20 min. To each the well was added 30 μL the solution of 7.5 mM ATCh in PBS (pH 7.4). […] Each test was performed in triplicate. Inhibition rates of the enzyme were calculated relative to a control sample. The inhibitory activities against BuChE were measured as described above for AChE, using 0.7 unit/mL BuChE and 4 mM BuTCh instead of AChE and ATCh as the enzyme and substrate, respectively.
(§2) The probit value of the average inhibition rate for each test concentration and the corresponding lg[concentration] were used to establish enzyme inhibition regression equation by the linear least-square fitting method. IC50 values were calculated from the equations.

[2] = target: T1, BuChE (Equus caballus, UniProt P81908); test: BuChE inhibition, Ellman's method; assay type: biochemical, horse; settings: read-out: IC50 ± S.D BuChE
T1 construct: BuChE (E.C. 3.1.1.8) (BR, 20 u/mg) from horse serum; purchased Shanghai Yuanye biological technology Co. Ltd (Shanghai, China); host or cells: horse serum (tissue-derived)
Source text: There is increasing recognition that BuChE may play an important role in cholinergic transmission[15],[16]. While the level of AChE decreases dramatically in the advanced stage of AD, BuChE increases in brain regions involved in cognitive functions[17],[18]. At this point, BuChE is able to compensate for AChE loss by hydrolyzing ACh. These observations lead one to believe that inhibition of both AChE and BuChE may contribute to improvement of current symptomatic treatments of AD. Therefore, the compounds in Table 2 were also evaluated for BuChE inhibition activity by means of Ellman’s method. […] AChE (E.C. 3.1.1.7) (BR, 200 u/mg) from fly’s head and BuChE (E.C. 3.1.1.8) (BR, 20 u/mg) from horse serum were purchased from Shanghai Yuanye biological technology Co. Ltd (Shanghai, China).
as §1, §2

AChE, sequence (Q7YWJ9 81-659): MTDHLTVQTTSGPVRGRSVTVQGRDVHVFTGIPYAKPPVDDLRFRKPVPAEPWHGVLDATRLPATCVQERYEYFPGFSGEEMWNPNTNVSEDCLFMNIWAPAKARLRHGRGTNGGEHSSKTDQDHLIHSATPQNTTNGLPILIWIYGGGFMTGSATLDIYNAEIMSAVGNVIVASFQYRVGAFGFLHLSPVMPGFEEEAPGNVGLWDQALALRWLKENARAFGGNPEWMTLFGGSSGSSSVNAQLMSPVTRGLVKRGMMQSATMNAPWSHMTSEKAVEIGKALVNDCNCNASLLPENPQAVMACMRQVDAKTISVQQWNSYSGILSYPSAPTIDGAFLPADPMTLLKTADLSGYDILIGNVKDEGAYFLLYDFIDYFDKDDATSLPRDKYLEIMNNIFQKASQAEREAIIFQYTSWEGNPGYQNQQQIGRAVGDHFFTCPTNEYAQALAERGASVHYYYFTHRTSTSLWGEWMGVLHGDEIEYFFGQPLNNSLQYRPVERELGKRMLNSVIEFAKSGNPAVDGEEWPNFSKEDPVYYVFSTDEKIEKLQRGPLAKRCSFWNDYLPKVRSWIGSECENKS
T1 sequence (P81908 whole entry): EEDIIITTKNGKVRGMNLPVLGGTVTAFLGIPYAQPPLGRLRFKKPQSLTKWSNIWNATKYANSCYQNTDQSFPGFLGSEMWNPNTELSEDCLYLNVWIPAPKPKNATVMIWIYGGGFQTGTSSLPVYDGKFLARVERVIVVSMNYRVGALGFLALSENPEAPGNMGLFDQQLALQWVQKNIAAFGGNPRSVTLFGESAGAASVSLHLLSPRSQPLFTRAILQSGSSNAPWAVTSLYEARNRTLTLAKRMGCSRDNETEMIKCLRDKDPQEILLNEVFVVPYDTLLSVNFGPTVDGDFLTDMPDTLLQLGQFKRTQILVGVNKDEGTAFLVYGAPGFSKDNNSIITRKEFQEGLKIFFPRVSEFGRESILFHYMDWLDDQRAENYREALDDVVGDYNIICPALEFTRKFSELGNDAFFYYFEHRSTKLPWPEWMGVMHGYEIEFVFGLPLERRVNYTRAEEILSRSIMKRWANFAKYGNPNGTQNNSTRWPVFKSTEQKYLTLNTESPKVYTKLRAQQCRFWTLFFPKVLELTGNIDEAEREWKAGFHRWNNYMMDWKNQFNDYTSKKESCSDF

For `Cn1c2ccccc2c2cc[n+](-c3cccc(Cl)c3)cc21.[Br-]` [Compound B6, 9-Methyl-2-(3-chlorophenyl)-β-carboline bromide], the “SI: selectivity index, ratio IC50 (BuChE)/IC50 (AChE)” value (“SI: selectivity index, ratio IC50” below) [1] was 3.40, the IC50 [1] was 9.65 ± 0.78 µM and the “Inhibition rate (%)” value [1] was 56.4 ± 2.5 no %. For the same compound, the IC50 [2] was 33.1 ± 1.07 µM.
In the case of `Cn1c2c(c3ccccc31)CC[N+](c1ccc(F)cc1)=C2.[Br-]` [Compound A4], the “SI: selectivity index, ratio IC50” value [1] is reported as 4.22, the IC50 [1] is reported as 14.1 ± 1.41 µM and the “Inhibition rate (%)” value [1] is reported as 49.3 ± 2.2 fgh %. The IC50 [2] was 59.5 ± 2.72 µM.
With `Cn1c2ccccc2c2cc[n+](-c3cccc(C#N)c3)cc21.[Br-]` [Compound B24, 9-Methyl-2-(3-cyanophenyl)-β-carboline bromide] the “SI: selectivity index, ratio IC50” value [1] was 20.6, the IC50 [1] was 10.3 ± 0.6 µM and the “Inhibition rate (%)” value [1] was 50.7 ± 2.2 pq %. For the same compound, the IC50 [2] was 212 ± 17.4 µM.
`Cc1cccc(-[n+]2ccc3c4ccccc4n(C)c3c2)c1.[Br-]` [Compound B21, 9-Methyl-2-(3-methylphenyl)-β-carboline bromide] was tested, and the “SI: selectivity index, ratio IC50” value [1] was 13.6, the IC50 [1] was 5.05 ± 0.26 µM and the “Inhibition rate (%)” value [1] was 72.4 ± 3.9 l %. It also gave an IC50 [2] of 68.6 ± 8.06 µM.
With `Cn1c2c(c3ccccc31)CC[N+](c1ccc(Cl)cc1)=C2.[Br-]` [Compound A7] the “SI: selectivity index, ratio IC50” value [1] was 5.57, the IC50 [1] was 7.58 ± 1.29 µM and the “Inhibition rate (%)” value [1] was 60.1 ± 2.9 d %. For the same compound, the IC50 [2] was 42.2 ± 0.86 µM.
With `Cn1c2c(c3ccccc31)CC[N+](c1ccc(Br)cc1)=C2.[Br-]` [Compound A10] the “SI: selectivity index, ratio IC50” value [1] was 11.2, the IC50 [1] was 6.79 ± 2.29 µM and the “Inhibition rate (%)” value [1] was 60.3 ± 1.6 d %. It also gave an IC50 [2] of 76.2 ± 11 µM.
`Cn1c2ccccc2c2cc[n+](-c3cccc(I)c3)cc21.[Br-]` [Compound B12, 9-Methyl-2-(3-iodohenyl)-β-carboline bromide] was tested, and the “SI: selectivity index, ratio IC50” value [1] was 1.90, the IC50 [1] was 11.1 ± 1.34 µM and the “Inhibition rate (%)” value [1] was 56.4 ± 5.9 no %. It also gave an IC50 [2] of 21.1 ± 0.46 µM.
With `COc1cccc(-[n+]2ccc3c4ccccc4n(C)c3c2)c1.[Br-]` [Compound B18, 9-Methyl-2-(3-methoxylphenyl)-β-carboline bromide] the “SI: selectivity index, ratio IC50” value [1] was 6.42, the IC50 [1] was 9.69 ± 0.8 µM and the “Inhibition rate (%)” value [1] was 53.5 ± 0.4 op %. For the same compound, the IC50 [2] was 62.2 ± 3.62 µM.
`Cn1c2c(c3ccccc31)CC[N+](c1ccc(O)cc1)=C2.[Br-]` [Compound A16] was tested, and the “SI: selectivity index, ratio IC50” value [1] was 9.96, the IC50 [1] was 2.81 ± 0.22 µM and the “Inhibition rate (%)” value [1] was 64.3 ± 0.3 cd %. It also gave an IC50 [2] of 28 ± 2.88 µM.
With `Cn1c2ccccc2c2cc[n+](-c3ccccc3C#N)cc21.[Br-]` [Compound B23, 9-Methyl-2-(2-cyanophenyl)-β-carboline bromide] the “SI: selectivity index, ratio IC50” value [1] was 44.4, the IC50 [1] was 4.41 ± 0.29 µM and the “Inhibition rate (%)” value [1] was 68.7 ± 0.7 lm %. It also gave an IC50 [2] of 196 ± 13.4 µM.
`Cn1c2c(c3ccccc31)CC[N+](c1cccc(O)c1)=C2.[Br-]` [Compound A15] was tested, and the “SI: selectivity index, ratio IC50” value [1] was 1.63, the IC50 [1] was 6.12 ± 0.61 µM and the “Inhibition rate (%)” value [1] was 51.8 ± 9.1 fg %. It also gave an IC50 [2] of 10 ± 0.59 µM.
In the case of `Cn1c2ccccc2c2cc[n+](-c3ccc(C(F)(F)F)cc3)cc21.[Br-]` [Compound B27, 9-Methyl-2-(4-trifluoromethylphenyl)-β-carboline bromide], the “SI: selectivity index, ratio IC50” value [1] is reported as 111.3, the IC50 [1] is reported as 0.7 ± 0.11 µM and the “Inhibition rate (%)” value [1] is reported as 91.4 ± 0.3 bcde %. The IC50 [2] was 77.9 ± 4.97 µM.
For `Cn1c2ccccc2c2cc[n+](-c3ccc(Cl)cc3)cc21.[Br-]` [Compound B7, 9-Methyl-2-(4-chlorophenyl)-β-carboline bromide], the “SI: selectivity index, ratio IC50” value [1] was 107.1, the IC50 [1] was 0.56 ± 0.07 µM and the “Inhibition rate (%)” value [1] was 91.2 ± 1.5 cde %. For the same compound, the IC50 [2] was 60 ± 1.52 µM.
With `C=CCn1c2c(c3ccccc31)CC[N+](c1ccccc1)=C2.[Br-]` [Compound A41] the “SI: selectivity index, ratio IC50” value [1] was 1.75, the IC50 [1] was 3.91 ± 0.36 µM and the “Inhibition rate (%)” value [1] was 74.4 ± 1.1 ab %. For the same compound, the IC50 [2] was 6.83 ± 0.2 µM.
With `Cn1c2c(c3ccc(Cl)cc31)CC[N+](c1ccccc1)=C2.[Br-]` [Compound A37] the “SI: selectivity index, ratio IC50” value [1] was 2.91, the IC50 [1] was 4.02 ± 0.95 µM and the “Inhibition rate (%)” value [1] was 66.6 ± 4.7 c %. The IC50 [2] was 11.7 ± 0.5 µM.
With `Cn1c2ccccc2c2cc[n+](-c3ccc(F)cc3)cc21.[Br-]` [Compound B4, 9-Methyl-2-(4-fluorophenyl)-β-carboline bromide] the “SI: selectivity index, ratio IC50” value [1] was 35.3, the IC50 [1] was 1.46 ± 0.12 µM and the “Inhibition rate (%)” value [1] was 84.3 ± 1.5 hi %. For the same compound, the IC50 [2] was 51.6 ± 2.43 µM.
